Legend:
H3122 cells = assay: Cytotoxicity in non-small cell lung cancer cell line H3122 (SRB); assay type: cell-based, human; details: H3122 cells, three days, SRB
Procedure: Particularly, 4,000 H3122 cells containing ALK enzyme were distributed in each well of a 96 well plate together with 100 μl of DMEM (Dulbecco's Modified Eagle's Medium). One day later, the compound of the present invention was added to each well at different concentrations of […]. DMSO (dimethylsulfoxide) was added to the well that was not loaded with the compound by the same amount as the compound. Three days after the addition of the compound, DMEM was eliminated. 10% TCA (trichloroacetic acid) was added to fix the cells. The wells were washed with running water three times and the live cells were stained with SRB solution (1 sulphorodamine B). Then, OD was measured to calculate the population of the live cells.

H2228 cells = assay: cells; details: Homo sapiens, NCI-H2228, 72 h, read-out: Cytotoxicity H2228 (GI50 μM), H2228 cells, three days, SRB

SMILES | GI50 (H3122 cells; Homo sapiens, NCI-H3122, 72 h) [µM] | GI50 (H2228 cells) [µM] | GI50 (H3122 cells) [µM]
COc1ccc(C2(CN)CCCC2)cc1Nc1ncc(Cl)c(Nc2ccccc2S(=O)(=O)C(C)C)n1 [Example 1, N2-(5-(1-(aminomethyl)cyclopentyl)-2-methoxyphenyl)-5-chloro-N4-(2-(isopropylsulfonyl)phenyl)pyrimidine-2,4-diamine] | 3.06 | 2.1 | –
COc1ccc(C2(CN)CCCCC2)cc1Nc1ncc(Cl)c(Nc2ccccc2S(=O)(=O)C(C)C)n1 [Example 2, N2-(5-(1-(aminomethyl)cyclohexyl)-2-methoxyphenyl)-5-chloro-N4-(2-(isopropylsulfonyl)phenyl)pyrimidine-2,4-diamine] | 2.63 | 3.77 | –
COc1ccc(CC2(N)CC2)cc1Nc1ncc(Cl)c(Nc2ccccc2S(=O)(=O)C(C)C)n1 [Example 3, N2-(5-((1-aminocyclopropyl)methyl)-2-methoxyphenyl)-5-chloro-N4-(2-(isopropylsulfonyl)phenyl)pyrimidine-2,4-diamine] | 0.77 | 1.21 | –
COc1ccc(CCN)cc1Nc1ncc(Cl)c(Nc2ccccc2S(=O)(=O)C(C)C)n1 [Example 4, N2-(5-(2-aminoethyl)-2-methoxyphenyl)-5-chloro-N4-(2-(isopropylsulfonyl)phenyl) pyrimidine-2,4-diamine] | ≤ 0.1 | – | 0.08
COc1ccc(C2(CN3CCCCC3)CCCC2)cc1Nc1ncc(Cl)c(Nc2ccccc2S(=O)(=O)C(C)C)n1 [Example 5] | – | 7.8 | 10
COc1ccc(C2(CN3CCOCC3)CCCC2)cc1Nc1ncc(Cl)c(Nc2ccccc2S(=O)(=O)C(C)C)n1 [Example 6, 5-chloro-N4-(2-(isopropylsulfonyl)phenyl)-N2-(2-methoxy-5-(1-(morpholinomethyl)cyclopentyl)phenyl)pyrimidine-2,4-diamine] | – | 10 | 10
COc1ccc(CCNC(C)=O)cc1Nc1ncc(Cl)c(Nc2ccccc2S(=O)(=O)C(C)C)n1 [Example 7, N-(3-(5-chloro-4-(2-(isopropylsulfonyl)phenylamino)pyrimidine-2-ylamino)-4-methoxyphenethyl)acetamide] | 0.79 | 0.8 | –
COc1ccc(CCNS(C)(=O)=O)cc1Nc1ncc(Cl)c(Nc2ccccc2S(=O)(=O)C(C)C)n1 [Example 8, N-(3-(5-chloro-4-(2-(isopropylsulfonyl)phenylamino)pyrimidine-2-ylamino)-4-methoxyphenethyl) methanesulfonamide] | 1.9 | 0.88 | –
COc1ccc(CCN(C)C)cc1Nc1ncc(Cl)c(Nc2ccccc2S(=O)(=O)C(C)C)n1 [Example 9, 5-chloro-N2-(5-(2-(dimethylamino)ethyl)-2-methoxyphenyl)-N4-(2-(isopropylsulfonyl)phenyl)pyrimidine-2,4-diamine] | 0.22 | 0.23 | –
CNCCc1ccc(OC)c(Nc2ncc(Cl)c(Nc3ccccc3S(=O)(=O)C(C)C)n2)c1 [Example 10, 5-chloro-N4-(2-(isopropylsulfonyl)phenyl)-N2-(2-methoxy-5-(2-(methylamino)ethyl)phenyl)pyrimidine-2,4-diamine] | 1.2 | 1.8 | –
COc1ccc(CCNCc2ccccc2)cc1Nc1ncc(Cl)c(Nc2ccccc2S(=O)(=O)C(C)C)n1 [Example 11, N2-(5-(2-(benzylamino)ethyl)-2-methoxyphenyl)-5-chloro-N4-(2-(isopropylsulfonyl)phenyl)pyrimidine-2,4-diamine] | 1.4 | 1.4 | –
COc1ccc(CCNC(=O)Cc2ccccc2)cc1Nc1ncc(Cl)c(Nc2ccccc2S(=O)(=O)C(C)C)n1 [Example 12, N-(3-(5-chloro-4-(2-(isopropylsulfonyl)phenylamino)pyrimidine-2-ylamino)-4-methoxyphenethyl)-2-phenylacetamide] | 4.7 | 1.1 | –
CCNCCc1ccc(OC)c(Nc2ncc(Cl)c(Nc3ccccc3S(=O)(=O)C(C)C)n2)c1 [Example 13, 5-chloro-N2-(5-(2-(ethylamino)ethyl)-2-methoxyphenyl)-N4-(2-(isopropylsulfonyl)phenyl)pyrimidine-2,4-diamine] | 0.99 | 0.87 | –
CCN(CC)CCc1ccc(OC)c(Nc2ncc(Cl)c(Nc3ccccc3S(=O)(=O)C(C)C)n2)c1 [Example 14, 5-chloro-N2-(5-(2-(diethylamino)ethyl)-2-methoxyphenyl)-N4-(2-(isopropylsulfonyl)phenyl)pyrimidine-2,4-diamine] | ≤ 0.1 | 0.09 | 0.05
COc1ccc(CCCNC(=O)C(F)(F)F)cc1Nc1ncc(Cl)c(Nc2ccccc2S(=O)(=O)C(C)C)n1 [Example 40, N-(3-(3-((5-chloro-4-((2-(isopropylsulfonyl)phenyl)amino)pyrimidine-2-yl)amino)-4-methoxyphenyl)propyl)-2,2,2-trifluoroacetamide] | 0.33 | – | –
COc1ccc(CCCN)cc1Nc1ncc(Cl)c(Nc2ccccc2S(=O)(=O)C(C)C)n1 [Example 41, N2-(5-(3-aminopropyl)-2-methoxyphenyl)-5-chloro-N4-(2-(isopropylsulfonyl)phenyl)pyrimidine-2,4-diamine] | 0.19 | – | –
COc1ccc(CC(N)=O)cc1Nc1ncc(Cl)c(Nc2ccccc2S(=O)(=O)C(C)C)n1 [Example 42, 2-(3-((5-chloro-4-((2-(isopropylsulfonyl)phenyl)amino)pyrimidine-2-yl)amino)-4-methoxyphenyl)acetamide] | 0.15 | – | –
CCOCCOC(=O)Cc1ccc(OC)c(Nc2ncc(Cl)c(Nc3ccccc3S(=O)(=O)C(C)C)n2)c1 [Example 43, 2-ethoxyethyl 2-(3-((5-chloro-4-((2-(isopropylsulfonyl)phenyl)amino)pyrimidine-2-yl)amino)-4-methoxyphenyl)acetate] | > 10 | – | –
COc1ccc(CC(=O)O)cc1Nc1ncc(Cl)c(Nc2ccccc2S(=O)(=O)C(C)C)n1 [Example 44, 2-(3-((5-chloro-4-((2-(isopropylsulfonyl)phenyl)amino)pyrimidine-2-yl)amino)-4-methoxyphenyl)acetic acid] | 1 | – | –
COc1ccc(CC(=O)N2CCOCC2)cc1Nc1ncc(Cl)c(Nc2ccccc2S(=O)(=O)C(C)C)n1 [Example 45, 2-(3-((5-chloro-4-((2-(isopropylsulfonyl)phenyl)amino)pyrimidine-2-yl)amino)-4-methoxyphenyl)-1-morpholinoethane-1-one] | – | – | 10
COc1ccc(CC(=O)N2CCCCC2)cc1Nc1ncc(Cl)c(Nc2ccccc2S(=O)(=O)C(C)C)n1 [Example 46, 2-(3-((5-chloro-4-((2-(isopropylsulfonyl)phenyl)amino)pyrimidine-2-yl)amino)-4-methoxyphenyl)-1-(piperidine-1-yl)ethane-1-one] | – | – | 10
COc1ccc(CC(=O)N2CCNCC2)cc1Nc1ncc(Cl)c(Nc2ccccc2S(=O)(=O)C(C)C)n1 [Example 48, 2-(3-((5-chloro-4-((2-(isopropylsulfonyl)phenyl)amino)pyrimidine-2-yl)amino)-4-methoxyphenyl)-1-(piperazine-1-yl) ethane-1-one] | 0.58 | – | –
COc1ccc(CC(=O)Nc2ccncc2)cc1Nc1ncc(Cl)c(Nc2ccccc2S(=O)(=O)C(C)C)n1 [Example 49, 2-(3-((5-chloro-4-((2-(isopropylsulfonyl)phenyl)amino)pyrimidine-2-yl)amino)-4-methoxyphenyl)-N-(pyridine-4-yl)acetamide] | – | – | 10
COc1ccc(CC(=O)Nc2ccccc2)cc1Nc1ncc(Cl)c(Nc2ccccc2S(=O)(=O)C(C)C)n1 [Example 50, 2-(3-((5-chloro-4-((2-(isopropylsulfonyl)phenyl)amino)pyrimidine-2-yl)amino)-4-methoxyphenyl)-N-phenylacetamide] | – | – | 10
COc1cc(Br)c(CCN)cc1Nc1ncc(Cl)c(Nc2ccccc2S(=O)(=O)C(C)C)n1 [Example 51, N2-(5-(2-aminoethyl)-4-bromo-2-methoxyphenyl)-5-chloro-N4-(2-(isopropylsulfonyl)phenyl)pyrimidine-2,4-diamine] | 1.1 | – | –
COc1cc(-c2cnn(C)c2)c(CCN)cc1Nc1ncc(Cl)c(Nc2ccccc2S(=O)(=O)C(C)C)n1 [Example 52, N2-(5-(2-aminoethyl)-2-methoxy-4-(1-methyl-1H-pyrazole-4-yl)phenyl)-5-chloro-N4-(2-(isopropylsulfonyl)phenyl)pyrimidine-2,4-diamine] | 0.096 | – | –
COc1cc(C(C)(C)N)c(C)cc1Nc1ncc(Cl)c(Nc2ccccc2S(=O)(=O)C(C)C)n1 [Example 57, N2-(4-(2-aminopropane-2-yl)-2-methoxy-5-methylphenyl)-5-chloro-N4-(2-(isopropylsulfonyl)phenyl)pyrimidine-2,4-diamine] | 0.012 | – | –
COc1cc(CN)c(C)cc1Nc1ncc(Cl)c(Nc2ccccc2S(=O)(=O)C(C)C)n1 [Example 68, N2-(4-(aminomethyl)-2-methoxy-5-methylphenyl)-5-chloro-N4-(2-(isopropylsulfonyl)phenyl)pyrimidine-2,4-diamine] | 0.11 | – | –
COc1cc(C[N+](C)(C)C)c(C)cc1Nc1ncc(Cl)c(Nc2ccccc2S(=O)(=O)C(C)C)n1 [Example 69, 1-(4-((5-chloro-4-((2-(isopropylsulfonyl)phenyl)amino)pyrimidine-2-yl)amino)-5-methoxy-2-methylphenyl)-N,N,N-trimethylmethanealuminum iodide] | 1.7 | – | –
COc1ccc(CCN2CCNCC2)cc1Nc1ncc(Cl)c(Nc2ccccc2S(=O)(=O)C(C)C)n1 [Example 73, 5-chloro-N4-(2-(isopropylsulfonyl)phenyl)-N2-(2-methoxy-5-(2-(piperazine-1-yl)ethyl)phenyl)pyrimidine-2,4-diamine] | 0.16 | – | –

Source: patent US10100019B2
